The record followed here is paper PMC11048155, “Antiviral Drug Candidate Repositioning for Streptococcus suis Infection in Non-Tumorigenic Cell Models” (Biomedicines, 2024).

Converted amounts (≈) assume the structure as drawn. “Also recorded” adds a separate entry of the source. A value given as a limit tells only on which side of the number the result lay.

Series [1] deals with Salmonella (S.) enterica (clinical isolate). The series is described as follows: MIC measurement (broth microdilution). It counts as cell-based. The conditions noted are these: source 204/22, 18–24 h at 37 °C. From the text: Bacterial strains used in this study were as follows: S. suis serotype 2 (ATCC 958242) Staphylococcus (S.) aureus (ATCC 10832), Escherichia (E.) coli (ATCC 11775), Pseudomonas (P.) aeruginosa (ATCC 27853), Pasteurella (P.) multocida (clinical isolate), Burkholderia (B.) cepacia (clinical isolate), Salmonella (S.) enterica (clinical isolate), and Enterococcus (E.) faecalis (clinical isolate). Of the clinical isolates used in this study, P. multocida is of porcine origin, B. cepacia is of human origin, and S. enterica and E. faecalis are of poultry origin. The bacterial strains were stored in the Microbiology Laboratory of the University of Veterinary Medicine, Budapest, at a temperature of −80 °C. Bacterial strains were inoculated the day before the test in 5 mL of Cation-Adjusted Mueller–Hinton Broth (CAMHB) and incubated for 18–24 h at 37 °C. The initial inoculum concentration used for the MIC assay was 5 × 10^5/mL. All wells except the first column of the working plates were filled with 90 µL CAMHB. A stock solution of inhibitors at 800 µM was then prepared, 180 µL of which was measured into the first column of plates and used to prepare a 2-based dilution on 96-well plates. After the 10th column, the tips were discarded with the 90 µL excess solution so that each column contained 90 µL of solution. Each bacterial strain was tested in a single row on the working plates. A bacterial suspension diluted to 25× was prepared on an auxiliary plate for bacterial inoculation by loading 240 µL of TSB per column of plates and adding 10–10 µL of bacterial strain suspension per well. In the next step, the isolated bacterial strains were inoculated onto the plates. Starting from column 11 (positive control) of the plates containing dilution row 2, 10 µL of bacterial suspension was added to each well, working backward. Column 11 served as a positive control (containing only bacterial suspension and broth), while column 12 served as a negative control (containing only broth). The microplates were then incubated at 37 °C for 18–24 h, and the MIC values were assessed in comparison to positive controls.

A further series has as its target T1, CYP2C19 (Homo sapiens, UniProt P33261).
T1 construct: Human hepatic microsomal supernatants were prepared; tissue Gibco; host or cells: human liver microsomes
The experiment in a line: CYP enzyme fluorometric activity measurement, human hepatic microsomes. Format: in vitro ADME. As to conditions: inhibitor 50 µM, 15 min, p > 0.05.

A further series relates to S. suis serotype 2. The experiment in a line: MIC measurement (broth microdilution). Format: cell-based, Streptococcus suis. The conditions noted are these: source 672/22, 18–24 h at 37 °C.
Series [2] has as its system Burkholderia (B.) cepacia (clinical isolate). The series is described as follows: MIC measurement (broth microdilution). Format: cell-based. The conditions noted are these: B. cepacia, source 20-10299; 18–24 h at 37 °C; read-out: MIC.
The subject of the next series is IPEC-J2 cells. The series is described as follows: EC H2O2 production, Amplex red method. It counts as cell-based, porcine. The conditions noted are these: 24 h. On the procedure:
For oxidative status measurements, inhibitors MI-432, MI-471, or MI-476 were used at 50 µM in the absence and presence of S. suis for 24 h in IPEC-J2 cells and in primary porcine hepatocytes on 24-well plates. An Amplex red hydrogen peroxide assay kit was used to monitor EC hydrogen peroxide (H₂O₂) production in IPEC-J2 cells and in hepatocytes. Following the manufacturer’s instructions, cell-free supernatants were collected and mixed with the Amplex red working solution (in a ratio of 1:1). A Victor X2 2030 fluorometer was used to detect fluorescence intensity at wavelengths 530 nm and 590 nm for excitation and emission, respectively.

The subject of series [3] is Enterococcus (E.) faecalis (clinical isolate). The experiment in a line: MIC measurement (broth microdilution). Format: cell-based. As to conditions: Enterococcus; E. fecalis, source 442; 18–24 h at 37 °C; read-out: MIC.
Another series deals with T2, CYP1A2 (Homo sapiens, UniProt P05177).
T2 sequence (P05177 1-516): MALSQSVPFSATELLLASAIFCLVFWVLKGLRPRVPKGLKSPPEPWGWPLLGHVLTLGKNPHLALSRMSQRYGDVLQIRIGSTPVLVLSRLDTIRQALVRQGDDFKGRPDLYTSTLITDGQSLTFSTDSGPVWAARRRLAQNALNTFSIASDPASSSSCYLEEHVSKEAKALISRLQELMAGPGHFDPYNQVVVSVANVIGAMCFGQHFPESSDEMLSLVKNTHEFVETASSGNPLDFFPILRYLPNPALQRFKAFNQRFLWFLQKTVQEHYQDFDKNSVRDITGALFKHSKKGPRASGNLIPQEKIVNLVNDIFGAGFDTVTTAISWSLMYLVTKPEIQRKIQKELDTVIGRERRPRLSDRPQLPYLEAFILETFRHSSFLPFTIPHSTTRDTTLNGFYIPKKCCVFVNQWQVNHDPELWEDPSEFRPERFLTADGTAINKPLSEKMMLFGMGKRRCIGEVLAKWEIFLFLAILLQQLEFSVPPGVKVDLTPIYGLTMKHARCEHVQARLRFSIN
The experiment in a line: CYP enzyme fluorometric activity measurement, human hepatic microsomes. The conditions noted are these: inhibitor 50 µM, human microsomes, 15 min; p > 0.05. As to the method: (§1) The Biovision CYP assays (BioVision, Inc., Kampenhout, Belgium) employ non-fluorescent CYP2D6, 2C9, 2C19, 1A2, or 3A4 substrates able to undergo transformation into highly fluorescent detectable metabolites. […] Human hepatic microsomal supernatants were prepared (Gibco, Biocentre, Szeged, Hungary protein concentration: 20 mg/mL) separately by mixing 30 µL with 2425 µL assay buffer and with 50 µL nicotinamide adenine dinucleotide phosphate (NADPH) generating system (100×). […] Control measurements were performed in the absence of the inhibitors.
(§2) In background controls, only assay buffer excluding microsomes and test compounds was used in a volume of 70 µL. Subsequently, after incubation at 37 °C for 15 min, 30 µL of the suitable CYP substrate/NADP+ mixture was incorporated into each well, resulting in a final reaction volume of 100 µL/well. The obtained microsomal protein content was assessed using the bicinchoninic acid protein assay kit (Pierce BCA kit, Thermo Fisher Scientific, Waltham, MA, USA). In each assay, the microsomal protein concentration was calibrated to 100 µg/well. The fluorescence intensities were measured with a fluorometer (Victor X2 2030, Perkin Elmer, Waltham, MA, USA) using λex/em = 406/468 nm for CYP1A2 and for CYP2C19, λex/em = 415/502 nm for CYP2C9, λex/em = 390/468 nm for CYP2D6, and λex/em = 535/587 nm for CYP3A4 assays.

In a further series the target is CYP3A4 (Homo sapiens, UniProt P08684). The series is described as above. As to conditions: human microsomal preparations, 15 min, 37 °C, p < 0.0001. As to the method:
as §1, §2

Setting [4] is: IPEC-J2, S. suis 10^4 CFU/mL in combination with inhibitor 50 µM.

Chain of CYP3A4 (P08684 whole entry): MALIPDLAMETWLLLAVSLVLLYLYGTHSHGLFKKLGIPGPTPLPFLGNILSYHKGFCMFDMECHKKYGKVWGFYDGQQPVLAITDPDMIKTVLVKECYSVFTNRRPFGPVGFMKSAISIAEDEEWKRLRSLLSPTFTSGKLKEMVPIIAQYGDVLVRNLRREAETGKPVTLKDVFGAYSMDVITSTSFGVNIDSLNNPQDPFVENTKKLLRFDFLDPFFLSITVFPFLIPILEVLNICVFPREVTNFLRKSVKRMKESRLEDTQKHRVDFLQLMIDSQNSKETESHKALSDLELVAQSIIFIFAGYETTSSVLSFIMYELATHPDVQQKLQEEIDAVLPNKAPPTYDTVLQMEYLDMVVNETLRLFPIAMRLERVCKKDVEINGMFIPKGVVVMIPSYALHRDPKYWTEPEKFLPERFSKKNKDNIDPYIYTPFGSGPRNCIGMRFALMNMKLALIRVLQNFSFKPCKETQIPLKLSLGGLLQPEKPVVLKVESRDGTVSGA
T1 sequence (P33261 whole entry): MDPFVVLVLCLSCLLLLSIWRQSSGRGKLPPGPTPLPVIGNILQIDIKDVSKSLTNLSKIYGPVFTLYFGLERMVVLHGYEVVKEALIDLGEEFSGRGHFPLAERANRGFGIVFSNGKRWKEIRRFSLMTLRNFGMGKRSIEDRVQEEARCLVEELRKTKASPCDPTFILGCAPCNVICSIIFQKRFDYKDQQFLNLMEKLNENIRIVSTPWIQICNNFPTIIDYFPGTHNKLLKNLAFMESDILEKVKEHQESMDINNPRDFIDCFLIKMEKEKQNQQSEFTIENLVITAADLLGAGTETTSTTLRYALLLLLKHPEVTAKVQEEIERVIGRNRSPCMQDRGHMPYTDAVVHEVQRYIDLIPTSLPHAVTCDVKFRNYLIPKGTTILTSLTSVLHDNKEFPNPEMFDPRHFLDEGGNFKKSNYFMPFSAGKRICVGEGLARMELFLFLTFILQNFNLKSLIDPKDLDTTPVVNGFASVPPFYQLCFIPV

On to `N=C(N)c1cccc(C[C@H](NS(=O)(=O)c2cccc(-c3ccc(Cl)cc3Cl)c2)C(=O)N2CCC(N)CC2)c1` [MI-471], for which the MIC in series [1] was more than 800 µM; in the series on S. suis serotype 2 (Streptococcus suis), 3 µM (≈ 1.72 µg/mL); against S. suis serotype 2 it was 3.125 µM (≈ 1.8 µg/mL); in series [2], 400 µM (≈ 230 µg/mL); in series [3] it was more than 800 µM. Also, at CYP2C19, the CYP2C19 activity result is “No significant inhibitory effects”. For the same compound, the “EC H2O2 production” value in the series on IPEC-J2 cells (setting [4]) was “significant increase; also recorded: significant elevation in H2O2 levels”; with IPEC-J2 cells (IPEC-J2, inhibitor alone 50 µM), “unchanged H₂O₂ production”. For the same compound, on CYP1A2, the CYP1A2 activity entry is recorded as “No significant inhibitory effects”. For the same compound, the CYP3A4 isoenzyme activity entry on CYP3A4 (inhibitor 10 µM), on CYP3A4 (inhibitor 25 µM) and at CYP3A4 (inhibitor 50 µM) was “mitigated” in each case.
Consider `N=C(N)c1cccc(C[C@H](NS(=O)(=O)c2cccc(-c3ccc(Cl)cc3Cl)c2)C(=O)N2CCC(CN)CC2)c1` [MI-476], for which the MIC in series [1] is more than 800 µM; in the series on S. suis serotype 2 (Streptococcus suis), 6 µM (≈ 3.53 µg/mL); in the series on S. suis serotype 2 it was 6.25 µM (≈ 3.68 µg/mL); in series [2], 400 µM (≈ 235 µg/mL); in series [3] it was more than 800 µM. Also, on CYP2C19, the CYP2C19 activity entry was “No significant inhibitory effects”. Further, the “EC H2O2 production” value was “unchanged H₂O₂ production; also recorded: antioxidant properties” in the series with IPEC-J2 cells (setting [4]) and “unchanged H₂O₂ production” in the series on IPEC-J2 cells (IPEC-J2, inhibitor alone 50 µM). Besides, the CYP1A2 activity entry on CYP1A2 was “No significant inhibitory effects”. Also, the CYP3A4 isoenzyme activity result on CYP3A4 (inhibitor 10 µM), at CYP3A4 (inhibitor 25 µM) and at CYP3A4 (inhibitor 50 µM) was “mitigated” each time.
